Experimental data published in ChEMBL document CHEMBL1933021, “Novel and selective spiroindoline-based inhibitors of Sky kinase” (Bioorg Med Chem Lett, 2012).
In brackets after ≈: the same amount, converted by molar mass.

Key:
[1] = target: Cyclin-dependent kinase 2 (Homo sapiens, UniProt P24941); test: Inhibition of Cdk2
Rattus norvegicus = test: Volume of distribution at steady state in po dosed Sprague-Dawley rat; format: ADME, organism-based; details: in vivo
[2] = Clearance in po dosed Sprague-Dawley rat; format: ADME, organism-based; details: in vivo
[3] = Half life in human liver microsomes; format: ADME, Microsome
[4] = Oral bioavailability in Sprague-Dawley rat; format: ADME, organism-based; details: in vivo
[5] = target: Casein kinase I isoform delta (Homo sapiens, UniProt P48730); test: Inhibition of CK1delta
Chain of Casein kinase I isoform delta (P48730 whole entry, canonical isoform): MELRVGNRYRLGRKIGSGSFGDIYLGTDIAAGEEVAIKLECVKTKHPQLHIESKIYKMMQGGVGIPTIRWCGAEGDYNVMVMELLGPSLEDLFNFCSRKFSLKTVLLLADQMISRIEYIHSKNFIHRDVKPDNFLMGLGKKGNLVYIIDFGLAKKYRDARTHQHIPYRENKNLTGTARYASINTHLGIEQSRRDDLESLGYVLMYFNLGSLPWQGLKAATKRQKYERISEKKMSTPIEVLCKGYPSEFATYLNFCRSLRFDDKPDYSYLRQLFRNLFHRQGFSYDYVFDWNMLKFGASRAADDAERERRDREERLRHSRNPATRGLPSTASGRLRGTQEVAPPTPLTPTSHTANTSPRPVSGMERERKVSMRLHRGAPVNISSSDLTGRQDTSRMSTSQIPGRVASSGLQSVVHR

[6] = Half life in po dosed Sprague-Dawley rat; format: ADME, organism-based; details: in vivo
[7] = Aqueous solubility of compound at pH 6.5; format: physicochemical
[8] = Inhibition of CK2
[9] = target: Serine/threonine-protein kinase Chk2 (Homo sapiens, UniProt O96017); test: Inhibition of Chk2
Chain of Serine/threonine-protein kinase Chk2 (O96017 whole entry): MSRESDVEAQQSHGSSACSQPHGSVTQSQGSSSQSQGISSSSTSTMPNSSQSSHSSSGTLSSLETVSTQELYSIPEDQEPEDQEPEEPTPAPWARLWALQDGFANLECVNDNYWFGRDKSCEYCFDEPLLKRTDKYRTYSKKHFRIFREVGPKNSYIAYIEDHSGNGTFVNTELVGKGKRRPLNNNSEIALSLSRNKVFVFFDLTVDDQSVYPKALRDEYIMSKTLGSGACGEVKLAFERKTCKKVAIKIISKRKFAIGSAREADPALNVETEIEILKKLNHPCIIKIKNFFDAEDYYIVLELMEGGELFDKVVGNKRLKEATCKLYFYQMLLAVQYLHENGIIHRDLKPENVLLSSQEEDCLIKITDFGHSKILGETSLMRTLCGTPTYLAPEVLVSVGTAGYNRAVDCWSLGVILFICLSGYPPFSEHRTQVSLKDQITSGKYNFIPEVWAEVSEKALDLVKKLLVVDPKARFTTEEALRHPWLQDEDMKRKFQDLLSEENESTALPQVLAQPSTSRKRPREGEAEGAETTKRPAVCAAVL

[10] = target: T1, Protein kinase C zeta type (Homo sapiens, UniProt Q05513); test: Inhibition of PKCzeta
T1 sequence (Q05513 whole entry): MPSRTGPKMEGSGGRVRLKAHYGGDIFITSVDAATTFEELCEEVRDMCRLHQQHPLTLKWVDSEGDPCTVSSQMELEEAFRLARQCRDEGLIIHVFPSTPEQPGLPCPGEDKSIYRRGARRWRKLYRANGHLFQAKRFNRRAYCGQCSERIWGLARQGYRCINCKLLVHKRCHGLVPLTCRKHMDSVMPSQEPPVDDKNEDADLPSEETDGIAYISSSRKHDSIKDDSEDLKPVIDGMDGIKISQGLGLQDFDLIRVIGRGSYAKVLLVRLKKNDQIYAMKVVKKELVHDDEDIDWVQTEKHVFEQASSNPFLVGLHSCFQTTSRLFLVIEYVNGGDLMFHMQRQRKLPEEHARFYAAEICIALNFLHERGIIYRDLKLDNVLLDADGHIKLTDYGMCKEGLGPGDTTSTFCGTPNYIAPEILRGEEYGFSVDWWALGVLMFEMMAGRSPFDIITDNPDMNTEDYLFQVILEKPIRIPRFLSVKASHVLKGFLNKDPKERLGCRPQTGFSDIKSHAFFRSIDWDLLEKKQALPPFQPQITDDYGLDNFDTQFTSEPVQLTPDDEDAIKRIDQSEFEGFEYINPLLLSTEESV

[11] = target: T2, Inhibitor of nuclear factor kappa-B kinase subunit beta (Homo sapiens, UniProt O14920); test: Inhibition of IKK-beta
T2 sequence (O14920 whole entry): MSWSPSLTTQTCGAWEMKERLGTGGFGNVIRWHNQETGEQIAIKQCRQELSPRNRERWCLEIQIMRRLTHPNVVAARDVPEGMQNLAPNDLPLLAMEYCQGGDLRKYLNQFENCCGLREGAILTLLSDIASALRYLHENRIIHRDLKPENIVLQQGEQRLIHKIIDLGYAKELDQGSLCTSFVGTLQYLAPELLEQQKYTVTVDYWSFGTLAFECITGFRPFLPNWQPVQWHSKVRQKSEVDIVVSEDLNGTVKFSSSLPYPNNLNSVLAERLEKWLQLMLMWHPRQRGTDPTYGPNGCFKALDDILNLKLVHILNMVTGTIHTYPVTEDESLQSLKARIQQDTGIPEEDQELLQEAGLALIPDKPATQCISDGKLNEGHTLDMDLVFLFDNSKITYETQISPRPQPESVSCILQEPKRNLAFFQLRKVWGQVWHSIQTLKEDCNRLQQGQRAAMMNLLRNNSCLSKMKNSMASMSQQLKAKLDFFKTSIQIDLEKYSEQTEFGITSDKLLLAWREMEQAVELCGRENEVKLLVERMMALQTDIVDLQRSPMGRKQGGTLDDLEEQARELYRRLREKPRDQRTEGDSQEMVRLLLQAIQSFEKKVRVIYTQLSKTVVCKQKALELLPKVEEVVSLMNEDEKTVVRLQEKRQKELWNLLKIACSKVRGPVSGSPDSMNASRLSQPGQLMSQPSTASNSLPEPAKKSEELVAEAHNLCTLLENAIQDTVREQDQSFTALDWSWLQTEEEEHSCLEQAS

Cytochrome P450 2D6 = Cytochrome P450 2D6 (Homo sapiens, UniProt P10635); test: Inhibition of CYP2D6 using dextromethorphan as substrate; format: ADME
Chain of Cytochrome P450 2D6 (P10635 whole entry): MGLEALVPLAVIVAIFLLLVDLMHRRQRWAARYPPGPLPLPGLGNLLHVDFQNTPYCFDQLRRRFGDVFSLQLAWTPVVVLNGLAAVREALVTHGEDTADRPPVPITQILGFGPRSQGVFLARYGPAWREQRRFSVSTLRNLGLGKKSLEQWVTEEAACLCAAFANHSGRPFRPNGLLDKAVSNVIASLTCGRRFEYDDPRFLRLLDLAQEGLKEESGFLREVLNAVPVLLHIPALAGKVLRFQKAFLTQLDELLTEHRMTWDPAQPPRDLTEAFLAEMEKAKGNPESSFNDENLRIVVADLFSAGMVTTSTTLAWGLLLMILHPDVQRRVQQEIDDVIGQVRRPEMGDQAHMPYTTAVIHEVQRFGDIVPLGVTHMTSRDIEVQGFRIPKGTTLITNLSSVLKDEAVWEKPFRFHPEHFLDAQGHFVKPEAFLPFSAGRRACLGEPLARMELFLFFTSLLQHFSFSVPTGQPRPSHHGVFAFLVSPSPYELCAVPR

[12] = target: T3, Serine/threonine-protein kinase Chk1 (Homo sapiens, UniProt O14757); test: Inhibition of Chk1
T3 sequence (O14757 whole entry): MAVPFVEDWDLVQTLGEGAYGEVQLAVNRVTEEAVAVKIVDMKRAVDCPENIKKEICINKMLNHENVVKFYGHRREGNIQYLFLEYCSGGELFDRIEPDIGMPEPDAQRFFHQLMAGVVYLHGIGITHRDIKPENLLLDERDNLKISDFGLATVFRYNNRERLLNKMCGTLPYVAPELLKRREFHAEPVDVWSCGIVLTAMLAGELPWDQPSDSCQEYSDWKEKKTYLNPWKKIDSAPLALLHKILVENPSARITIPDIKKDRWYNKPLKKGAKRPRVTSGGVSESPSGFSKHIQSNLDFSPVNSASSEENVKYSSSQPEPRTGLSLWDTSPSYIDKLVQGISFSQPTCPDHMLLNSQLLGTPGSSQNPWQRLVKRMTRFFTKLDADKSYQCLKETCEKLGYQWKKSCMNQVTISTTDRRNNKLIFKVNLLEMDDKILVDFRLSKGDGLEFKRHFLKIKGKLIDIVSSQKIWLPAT

[13] = target: Hepatocyte growth factor receptor (Homo sapiens, UniProt P08581); test: Inhibition of HGFR
Chain of Hepatocyte growth factor receptor (P08581 whole entry): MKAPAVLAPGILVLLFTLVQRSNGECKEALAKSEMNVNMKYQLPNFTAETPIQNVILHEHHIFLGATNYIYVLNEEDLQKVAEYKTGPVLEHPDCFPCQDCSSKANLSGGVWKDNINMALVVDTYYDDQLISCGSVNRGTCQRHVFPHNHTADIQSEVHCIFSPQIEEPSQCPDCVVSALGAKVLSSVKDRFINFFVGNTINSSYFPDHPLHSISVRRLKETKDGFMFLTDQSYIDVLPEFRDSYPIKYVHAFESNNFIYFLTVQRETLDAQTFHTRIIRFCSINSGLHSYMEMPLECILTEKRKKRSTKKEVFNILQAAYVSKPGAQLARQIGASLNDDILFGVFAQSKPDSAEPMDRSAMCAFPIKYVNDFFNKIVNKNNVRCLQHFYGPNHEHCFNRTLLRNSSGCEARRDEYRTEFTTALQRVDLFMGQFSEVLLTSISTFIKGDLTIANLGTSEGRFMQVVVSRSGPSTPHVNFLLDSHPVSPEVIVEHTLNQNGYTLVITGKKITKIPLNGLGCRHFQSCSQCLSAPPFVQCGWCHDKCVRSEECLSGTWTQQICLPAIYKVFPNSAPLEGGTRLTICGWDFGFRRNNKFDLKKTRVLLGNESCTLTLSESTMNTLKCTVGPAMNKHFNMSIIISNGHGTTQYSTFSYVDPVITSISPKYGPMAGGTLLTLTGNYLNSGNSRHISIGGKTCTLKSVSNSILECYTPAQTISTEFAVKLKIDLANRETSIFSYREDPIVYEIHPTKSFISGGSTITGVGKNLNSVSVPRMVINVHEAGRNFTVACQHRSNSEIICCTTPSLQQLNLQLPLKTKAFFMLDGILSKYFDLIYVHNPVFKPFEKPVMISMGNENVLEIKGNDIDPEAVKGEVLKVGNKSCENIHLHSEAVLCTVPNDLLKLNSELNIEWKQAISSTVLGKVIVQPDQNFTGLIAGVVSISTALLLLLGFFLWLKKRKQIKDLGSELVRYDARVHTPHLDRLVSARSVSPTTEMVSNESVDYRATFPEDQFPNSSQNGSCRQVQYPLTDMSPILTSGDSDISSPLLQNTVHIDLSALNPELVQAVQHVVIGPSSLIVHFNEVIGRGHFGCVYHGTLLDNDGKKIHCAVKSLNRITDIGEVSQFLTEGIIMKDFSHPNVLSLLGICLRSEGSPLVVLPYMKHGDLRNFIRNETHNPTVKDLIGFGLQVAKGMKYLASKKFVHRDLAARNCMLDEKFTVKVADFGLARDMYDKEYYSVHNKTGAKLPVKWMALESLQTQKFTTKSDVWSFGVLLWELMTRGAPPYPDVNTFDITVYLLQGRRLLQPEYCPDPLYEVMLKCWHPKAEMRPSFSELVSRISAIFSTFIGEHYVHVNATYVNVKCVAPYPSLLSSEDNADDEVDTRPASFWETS

[14] = target: Serine/threonine-protein kinase TAO3 (Homo sapiens, UniProt Q9H2K8); test: Inhibition of TAOK3
Chain of Serine/threonine-protein kinase TAO3 (Q9H2K8 whole entry): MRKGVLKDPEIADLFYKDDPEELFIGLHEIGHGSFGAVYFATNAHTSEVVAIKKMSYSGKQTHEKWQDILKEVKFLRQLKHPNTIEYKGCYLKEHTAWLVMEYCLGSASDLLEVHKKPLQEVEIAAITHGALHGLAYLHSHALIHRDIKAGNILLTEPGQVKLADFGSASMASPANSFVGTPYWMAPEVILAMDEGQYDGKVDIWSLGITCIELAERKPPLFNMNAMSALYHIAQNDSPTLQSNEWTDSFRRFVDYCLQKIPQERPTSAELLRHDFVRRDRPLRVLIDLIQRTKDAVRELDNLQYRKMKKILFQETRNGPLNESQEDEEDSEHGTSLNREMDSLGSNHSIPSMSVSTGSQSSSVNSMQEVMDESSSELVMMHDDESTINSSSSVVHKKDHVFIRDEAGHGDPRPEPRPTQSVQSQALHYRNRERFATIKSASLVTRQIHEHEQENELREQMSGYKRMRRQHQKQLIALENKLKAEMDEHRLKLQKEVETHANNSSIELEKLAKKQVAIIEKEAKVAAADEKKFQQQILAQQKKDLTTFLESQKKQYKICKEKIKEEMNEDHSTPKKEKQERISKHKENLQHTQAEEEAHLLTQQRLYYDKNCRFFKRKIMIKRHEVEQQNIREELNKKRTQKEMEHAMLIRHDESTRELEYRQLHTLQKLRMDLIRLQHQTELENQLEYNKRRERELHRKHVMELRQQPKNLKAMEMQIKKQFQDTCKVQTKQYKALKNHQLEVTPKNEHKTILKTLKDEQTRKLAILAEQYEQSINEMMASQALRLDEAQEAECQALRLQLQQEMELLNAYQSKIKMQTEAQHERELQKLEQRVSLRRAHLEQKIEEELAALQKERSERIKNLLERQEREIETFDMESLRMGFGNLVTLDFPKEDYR

[15] = target: High affinity nerve growth factor receptor (Homo sapiens, UniProt P04629); test: Inhibition of TrkA
[16] = Permeability across human Caco2 cells; format: ADME, cell-based; details: Caco-2, read-out: permeability
CYP2D6 = CYP2D6 (Homo sapiens, UniProt P10635); test: Inhibition of CYP2D6 using dextromethorphan as substrate at 3 uM; format: ADME; details: probe dextromethorphan
Chain of CYP2D6 (P10635 whole entry): as the sequence (P10635 whole entry) above

[17] = target: Serine/threonine-protein kinase Sgk1 (Homo sapiens, UniProt O00141); test: Inhibition of Sgk
[18] = target: RAC-alpha serine/threonine-protein kinase (Homo sapiens, UniProt P31749); test: Inhibition of AKT1
Chain of RAC-alpha serine/threonine-protein kinase (P31749 whole entry): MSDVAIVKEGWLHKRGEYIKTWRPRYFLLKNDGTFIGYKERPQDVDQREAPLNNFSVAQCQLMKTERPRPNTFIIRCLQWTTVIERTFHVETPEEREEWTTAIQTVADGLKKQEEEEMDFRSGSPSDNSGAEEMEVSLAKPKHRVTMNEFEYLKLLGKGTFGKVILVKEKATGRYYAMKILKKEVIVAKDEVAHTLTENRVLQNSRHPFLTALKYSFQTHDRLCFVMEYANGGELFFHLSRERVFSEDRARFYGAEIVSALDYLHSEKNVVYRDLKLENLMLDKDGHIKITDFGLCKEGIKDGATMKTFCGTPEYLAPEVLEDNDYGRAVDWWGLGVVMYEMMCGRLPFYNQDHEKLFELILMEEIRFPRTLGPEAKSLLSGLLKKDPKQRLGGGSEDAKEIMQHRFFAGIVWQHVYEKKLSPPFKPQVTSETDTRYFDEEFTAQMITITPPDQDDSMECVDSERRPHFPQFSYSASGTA

Insulin receptor = Insulin receptor (Homo sapiens, UniProt P06213); test: Inhibition of INSR
[19] = target: Vascular endothelial growth factor receptor 2 (Homo sapiens, UniProt P35968); test: Inhibition of VEGFR2
[20] = target: Mitogen-activated protein kinase 1 (Homo sapiens, UniProt P28482); test: Inhibition of Erk2
Chain of Mitogen-activated protein kinase 1 (P28482 whole entry): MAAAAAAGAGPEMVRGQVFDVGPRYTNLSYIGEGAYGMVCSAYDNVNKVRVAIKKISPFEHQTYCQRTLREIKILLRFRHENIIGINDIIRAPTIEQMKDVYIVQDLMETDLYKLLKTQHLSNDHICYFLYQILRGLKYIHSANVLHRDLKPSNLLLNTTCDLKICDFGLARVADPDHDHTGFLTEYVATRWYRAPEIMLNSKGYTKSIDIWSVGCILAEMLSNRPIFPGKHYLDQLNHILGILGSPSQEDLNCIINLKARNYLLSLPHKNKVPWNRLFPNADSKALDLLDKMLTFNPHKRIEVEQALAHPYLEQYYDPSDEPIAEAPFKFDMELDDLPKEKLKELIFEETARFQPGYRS

Aurora kinase A = Aurora kinase A (Homo sapiens, UniProt O14965); test: Inhibition of Aurora-A
Chain of Aurora kinase A (O14965 whole entry): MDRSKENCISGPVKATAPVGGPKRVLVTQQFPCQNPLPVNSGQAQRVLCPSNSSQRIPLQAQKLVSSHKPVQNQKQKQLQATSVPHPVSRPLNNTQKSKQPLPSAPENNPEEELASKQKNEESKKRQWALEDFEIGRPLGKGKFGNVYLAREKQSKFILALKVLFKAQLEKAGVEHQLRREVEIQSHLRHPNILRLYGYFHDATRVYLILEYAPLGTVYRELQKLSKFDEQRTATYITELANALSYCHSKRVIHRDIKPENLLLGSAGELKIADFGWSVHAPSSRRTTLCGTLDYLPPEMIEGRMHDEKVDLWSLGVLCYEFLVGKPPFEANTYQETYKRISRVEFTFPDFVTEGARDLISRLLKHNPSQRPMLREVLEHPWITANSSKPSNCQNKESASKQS

SMILES	IC50 [1] [µM]	half-life [3] [min]	IC50 [5] [µM]	solubility [7] [µM]	IC50 [8] [µM]	IC50 [9] [µM]	IC50 [10] [µM]	IC50 [11] [µM]	IC50 [12] [µM]	IC50 [13] [µM]	other results
O=C(c1cc2ccc(F)cc2[nH]1)N1C[C@]2(CCN(C3CCNC3)C2)c2ccccc21 (stereo partly drawn)	> 30	52	11	7.8 (≈ 3.16 µg/mL)	> 30	> 30	> 30	> 30	> 30		Vdss (Rattus norvegicus): 1.6 L/kg; CL/F [2]: 5 mL/min/kg; bioavailability [4]: 11%; half-life [6]: 240 min; IC50 (Cytochrome P450 2D6): 0.655 µM
C[C@@H]1CCC(N2CC[C@]3(CN(C(=O)c4cc5ccccc5[nH]4)c4ccccc43)C2)CN1 (stereo partly drawn)	> 30		6.61		> 30	> 30	> 30	> 30	> 30	> 30	
C[C@@H]1CCC(N2CC[C@]3(CN(C(=O)c4cc5ccc(F)cc5[nH]4)c4ccccc43)C2)CN1 (stereo partly drawn)	> 30	44	1.73	11.7 (≈ 5.06 µg/mL)	> 30	> 30	> 30	> 30	> 30		IC50 [14]: > 30 µM; IC50 [15]: > 30 µM; Papp [16]: 5.13 ×10⁻⁶ cm/s; inhibition at 3 µM (CYP2D6): 94%; IC50 [17]: > 30 µM; IC50 [18]: > 30 µM; IC50 (Insulin receptor): > 30 µM; IC50 [19]: 21.9 µM; IC50 [20]: > 30 µM; IC50 (Aurora kinase A): > 30 µM
O=C(c1cc2cc(F)ccc2[nH]1)N1C[C@]2(CCN(C3CCCNC3)C2)c2ccccc21 (stereo partly drawn)	> 30				> 30	> 30	> 30	> 30	> 30	> 30	
